# Reference: US6124308A, “Optically active phenyl pyrimidine derivatives as analgesic agent” (priority 1995, dated 2000)
# Structures can show the parent of a compound that is named as a salt. Where two headings read alike, the source gives them in different places.
# What was measured:
# [1] = Melting profile / stability of salts (Mettler hotstage and DSC); format: physicochemical; conditions: for Hotstage/DSC results indicates (racemisation on heating) / temperature of racemisation indicated by hotstage/DSC: 10° C./min
# Experimental: Events on heating were monitored visually using a Mettler hotstage and a microscope. A DSC scan was then used to confirm the observed events and identify the type of event. The DSC experiments were performed using the Perkin Elmer DSC-7 system with a TAC7/DX recorder. In order to capture as many events as possible a scan irate of 10° C./min and 1-2 mg sample size was used. DSC sweeps between 40° C. and 400° C. or from and to 50° C. outside any event observed on the hot stage were carried out on one or two samples. The samples and reference (air) were placed in 50 μl aluminium pans with holes.
# [2] = Solubility of salts in water and pH (drug addition method); format: physicochemical; conditions: water, room temperature
# Experimental: The solubility was determined by means of the drug addition method. At room temperature the drug was added to 0.25 ml deionised water. The sample was diluted to 2 ml for pH determination. A single determination was carried out.
# [3] = test system: maximal electroshock seizure; test: Maximal electroshock test, rats, i.v., stronger current (200 mA); format: in vivo; conditions: Rattus norvegicus, iv, 1 h
# From the text: A stronger current (200 mA) was used compared with that (20 mA) used in the other procedures.
# [4] = test system: hind-limb extension (maximal electroshock seizure); test: Maximal electroshock test, rats, i.p., duration of action; format: in vivo, rat; conditions: for ED50: Rattus norvegicus, ip; for ED50 (95% limits): i.p.
# [5] = test system: whole-cell sodium currents in cultured rat hippocampal neurones; test: Whole-cell sodium currents in cultured embryonic rat hippocampal neurones, patch-clamp; format: cell-based; conditions: for IC50: 20 msec pulses to -10 mV from holding potential -60 mV, read-out: IC50 (reduction of peak sodium current); for reduction of peak sodium current: holding potential -60 mV
# From the text: (b) Cultured embryonic rat hippocampal neurones
# Sodium currents were elicited by the application of 20 msec dipolarisng pulses, thereby lowering membrane potential to -10 mV from a holding potential of -60 mV.
# [6] = test system: striatal dopamine in MPTP injected C57B1/6 mice; test: MPTP induced neurotoxic model, striatal dopamine levels; format: in vivo, mouse
# Experimental: Six-week old male C57B1/6 mice (Japan SLC Co., Hamamatu) were housed ten per case in a temperature-controlled room under a 12-hours light/12-hours dark cycle with free access to food and water.
# Mice received i.p. injections of the R(-) enantiomer and the S(+) enantiomer (30 mg/kg) in olive oil starting 12 hours before MPTP injection and every 12 hours for the next 5-injections. Control mice received olive oil only.
# Mice receive s.c. injection of MPTP-HCl (40 mg of free base per kg; Research Biochemicals) in saline. Control mice received saline only.
# HPLC with electrochemical detection was used to measure striatal levels of dopamine (J.C. Garcia': Journal of Chromatography B. 656 (1994) 77-80).
# Seven days after the MPTP injection, mice ([…]) were killed and striata were dissected out, immediately frozen, and stored at -80° C. until analysis. On the day of the assay, tissue samples were sonicated in 10 vol(wt/vol) of 0.1M perchloric acid /1.9 mM sodium hydrogen sulfite containing 1.6μg/ml 3,4-dihydroxybenzylamine hydrobromide(Sigma) as an internal standard. After centrifugation (2,800× g for 10 min at room temperature) and filtration (0.5 μm; Millipore membrane filter), 10 μl of supernatant was injected onto an Inertsil ODS3 column (4.6×250 mm; GL Science, Tokyo). The mobile phase consisted of 88% 115 mM NaH2 PO4 /0.178 mM Na2 EDTA /0.92 mM 1-octanesulfonic acid (pH=2.6) solution and 12% ethanol. F low rate was 1.0 ml/min. Peaks were detected by a Shimazu electrochemical detector LECD-6A(700 mV).
# [7] = test system: PGE2-induced acute hyperalgesia; test: Effects on the development of PGE2-induced acute hyperalgesia (paw pressure); format: in vivo, rat; conditions: 1 h before PGE2 (100 ng), n=5
# Experimental: Effects on the development of PGE2 -induced acute hyperalgesia
# Reaction times to paw pressure were measured 3 h after PGE2 injection. Ataxia was scored at the same time by observation of the rats placed in an arena.
# [8] = test system: veratrine-evoked glutamate release from rat brain slices; test: Inhibition of veratrine-evoked glutamate release; format: cell-based
# [9] = molecular target: T1, rat liver DHFR (Rattus norvegicus, UniProt Q920D2); test: Activity against dihydrofolate reductase (DHFR), spectrophotometric assay; format: biochemical; conditions: at 100 μM
# T1 construct: rat liver DHFR; from tissue; host or cells: rat liver
# T1 sequence (Q920D2 1-187): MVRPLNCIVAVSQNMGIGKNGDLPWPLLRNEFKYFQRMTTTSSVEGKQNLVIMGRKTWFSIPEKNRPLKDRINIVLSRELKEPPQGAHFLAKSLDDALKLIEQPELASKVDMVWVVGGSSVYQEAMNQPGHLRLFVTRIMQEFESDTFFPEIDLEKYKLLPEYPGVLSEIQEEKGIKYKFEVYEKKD
# [10] = Half-life in male rats; format: in vivo, rat
# [11] = test system: maximal electroshock seizure; test: Maximal electroshock test, mice, different routes of administration; format: in vivo, mouse; conditions: Mus musculus, mice, 1 hour, read-out: ED50 (95% limits)
# [12] = molecular target: T2, rat type IIA sodium channels (Rattus norvegicus, UniProt P04775); test: Recombinant rat type IIA sodium channels in chinese hamster ovary cells, whole-cell recording; format: cell-based; conditions: for IC50: IC50 (inhibition of Na+ currents)
# T2 construct: no beta subunit mentioned
# T2 sequence (P04775 whole entry): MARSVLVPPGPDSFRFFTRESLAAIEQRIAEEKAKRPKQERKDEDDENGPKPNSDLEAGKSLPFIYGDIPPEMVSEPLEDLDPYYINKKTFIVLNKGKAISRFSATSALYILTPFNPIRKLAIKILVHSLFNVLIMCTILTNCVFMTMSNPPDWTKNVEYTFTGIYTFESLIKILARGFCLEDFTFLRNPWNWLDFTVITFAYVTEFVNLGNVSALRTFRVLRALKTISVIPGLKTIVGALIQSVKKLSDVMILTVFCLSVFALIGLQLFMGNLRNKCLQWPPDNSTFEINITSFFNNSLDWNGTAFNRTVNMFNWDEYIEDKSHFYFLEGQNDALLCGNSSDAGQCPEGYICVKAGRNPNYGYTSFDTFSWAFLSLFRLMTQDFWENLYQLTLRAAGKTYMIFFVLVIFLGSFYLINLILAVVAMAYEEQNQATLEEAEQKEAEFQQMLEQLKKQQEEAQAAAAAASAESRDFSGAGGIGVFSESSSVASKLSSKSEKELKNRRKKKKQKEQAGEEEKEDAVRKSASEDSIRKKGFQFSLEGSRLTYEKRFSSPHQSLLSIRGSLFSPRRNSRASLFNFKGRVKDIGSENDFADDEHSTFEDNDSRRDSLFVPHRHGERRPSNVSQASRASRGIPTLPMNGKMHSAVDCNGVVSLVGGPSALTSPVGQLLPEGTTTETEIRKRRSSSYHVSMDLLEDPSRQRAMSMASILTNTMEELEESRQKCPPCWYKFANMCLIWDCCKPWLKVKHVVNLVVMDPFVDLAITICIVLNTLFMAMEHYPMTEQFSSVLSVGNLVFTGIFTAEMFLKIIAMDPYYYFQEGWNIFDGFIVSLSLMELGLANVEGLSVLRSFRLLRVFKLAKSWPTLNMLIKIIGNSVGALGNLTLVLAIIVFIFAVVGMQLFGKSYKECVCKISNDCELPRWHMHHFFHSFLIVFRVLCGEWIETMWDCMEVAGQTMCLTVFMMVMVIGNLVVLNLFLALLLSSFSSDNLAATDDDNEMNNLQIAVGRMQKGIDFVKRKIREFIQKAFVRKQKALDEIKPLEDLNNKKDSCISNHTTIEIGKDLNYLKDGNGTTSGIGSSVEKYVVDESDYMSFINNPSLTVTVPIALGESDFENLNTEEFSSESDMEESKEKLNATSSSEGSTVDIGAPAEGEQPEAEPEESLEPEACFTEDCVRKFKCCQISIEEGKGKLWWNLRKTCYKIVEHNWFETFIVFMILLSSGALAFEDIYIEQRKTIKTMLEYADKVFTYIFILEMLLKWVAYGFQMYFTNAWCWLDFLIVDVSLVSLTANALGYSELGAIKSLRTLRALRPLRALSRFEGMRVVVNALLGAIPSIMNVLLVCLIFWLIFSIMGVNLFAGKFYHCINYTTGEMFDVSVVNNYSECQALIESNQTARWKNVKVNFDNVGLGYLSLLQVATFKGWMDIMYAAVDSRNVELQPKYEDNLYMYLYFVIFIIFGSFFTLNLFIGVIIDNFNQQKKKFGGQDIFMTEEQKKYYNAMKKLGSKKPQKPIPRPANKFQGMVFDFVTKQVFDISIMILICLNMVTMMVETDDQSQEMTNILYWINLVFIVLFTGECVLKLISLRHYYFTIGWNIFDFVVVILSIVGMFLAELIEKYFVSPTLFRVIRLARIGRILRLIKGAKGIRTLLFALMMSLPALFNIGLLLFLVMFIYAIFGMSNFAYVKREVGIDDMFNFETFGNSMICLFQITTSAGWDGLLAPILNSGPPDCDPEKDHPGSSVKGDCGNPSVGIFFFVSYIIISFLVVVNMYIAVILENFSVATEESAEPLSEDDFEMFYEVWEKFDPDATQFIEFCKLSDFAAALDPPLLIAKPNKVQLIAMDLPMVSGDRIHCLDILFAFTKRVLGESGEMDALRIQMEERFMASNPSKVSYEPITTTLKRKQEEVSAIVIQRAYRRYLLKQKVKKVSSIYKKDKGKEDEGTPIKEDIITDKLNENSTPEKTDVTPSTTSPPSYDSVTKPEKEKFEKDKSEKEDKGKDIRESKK
# From the text: The IC50 's at two different holding potentials (Vh) were as follows: […]
compound,measurement,setting,value
Nc1nc(N)c(-c2cccc(Cl)c2Cl)c(CF)n1 [Benzenesulphonate],stability profile suggested by the tests,[1],could provide good stability
same,pH of the solution,[2],2.43
"Nc1nc(N)c(-c2cccc(Cl)c2Cl)c(CF)n1 [Isethionate, R(-)-2,4-diamino-5-(2,3-dichlorophenyl)-6-fluoromethyl Pyrimidine Isethionate]",pH of the solution,[2],1.67
same,solubility of the equivalent base over or around 25 mg/ml,[2],around 25 mg/ml
same,ED50,[3],1.5 mg/kg
same,ED50,"[4]; 2 h, read-out: ED50 at 2 hrs (isethionate salt versus base), i.p., 2 hrs, calculated as the base, p<0.05",1.8 mg/kg
"Nc1nc(N)c(-c2cccc(Cl)c2Cl)c(CF)n1 [S(+)enantiomer, S(+)-2,4-diamino-5-(2,3-dichlorophenyl)-6-fluoromethyl pyrimidine, reference compound]",IC50,[5],20 µM
same,reduction of peak sodium current,[5],concentration-dependent reduction of peak sodium current
same,% protection,"[6]; 30 mg/kg i.p. 6 times, MPTP 40 mg/kg s.c.",20.3%
same,Dopamine content in the striatum,"[6]; 30 mg/kg i.p. 6 times, MPTP 40 mg/kg s.c., day 7",7.99 ± 1.55 μg/g wet tissue
same,% mortality,"[6]; 30 mg/kg i.p., day -1 to 7",0%
same,Analgesia ED50 (95% limits),[7]; p.o.,50.1 (39.2-70.5) mg/kg
same,inhibition of veratrine-evoked glutamate release,[8]; at 10 μM,0%
same,ED50 (95% limits),"[4]; rats, 0.5 hours, 30 min",17.6 (11.6-26.4) mg/kg
same,ED50 (95% limits),"[4]; rats, 1 hour, 60 min",19.0 (12.7-28.5) mg/kg
same,ED50 (95% limits),"[4]; rats, 2 hours, 120 min",30.7 (20.9-45.3) mg/kg
same,ED50 (95% limits),"[4]; rats, 4 hours, 240 min",87.3 (47.7-168) mg/kg
same,inhibition of rat liver DHFR,[9],33%
same,half-life (t1/2),[10],3.1 h
Nc1nc(N)c(-c2cccc(Cl)c2Cl)c(CF)n1 [Naphthalenedisulphonate],stability profile suggested by the tests,[1],could provide good stability
same,solubility of four salts,[2],less than 1 mg/ml
Nc1nc(N)c(-c2cccc(Cl)c2Cl)c(CF)n1 [Citrate],stability profile suggested by the tests,[1],could provide good stability
same,pH of the solution,[2],3.99
"Nc1nc(N)c(-c2cccc(Cl)c2Cl)c(CF)n1 [Methanesulphonate, R(-)-2,4-diamino-5-(2,3-dichlorophenyl)-6-fluoromethyl Pyrimidine Methanesulphonate]",stability profile suggested by the tests,[1],could provide good stability
same,Hotstage/DSC results indicates (racemisation on heating),[1],Racemisation
same,temperature of racemisation indicated by hotstage/DSC,[1],240 °C
same,pH of the solution,[2],3.33
same,solubility of the equivalent base over or around 25 mg/ml,[2],around 25 mg/ml
Nc1nc(N)c(-c2cccc(Cl)c2Cl)c(CF)n1 [Tartrate],stability profile suggested by the tests,[1],could provide good stability
same,pH of the solution,[2],3.48
Nc1nc(N)c(-c2cccc(Cl)c2Cl)c(CF)n1 [Acetate],Hotstage/DSC results indicates (racemisation on heating),[1],Racemisation
same,temperature of racemisation indicated by hotstage/DSC,[1],~200 °C
same,pH of the solution,[2],5.54
same,solubility,[2]; read-out: solubility of four salts,< 1 mg/mL
"Nc1nnc(-c2cccc(Cl)c2Cl)c(N)n1 [Lamotrigine, 3,5-diamino-6-(2,3-dichlorophenyl)-1,2,4-triazine, reference compound]",ED50,"[11]; ip, i.p.",2.3 mg/kg
same,ED50,"[11]; po, p.o.",3.3 mg/kg
same,ED50,"[11]; sc, s.c.",1.8 mg/kg
same,IC50,"[5]; Rattus norvegicus, Hippocampal neurone",16 µM
same,reduction of peak sodium current,[5],concentration-dependent reduction of peak sodium current
same,ED50,[3],2.5 mg/kg
same,ED50,"[7]; Rattus norvegicus, po, read-out: Analgesia ED50 (95% limits)",34.8 mg/kg
same,IC50,[8]; Rattus norvegicus,21 µM
same,IC50,[12]; Vh = -60 mV,98 µM
same,IC50,[12]; Vh = -90 mV,413 µM
same,inhibition of Na+ currents,[12]; R(-)enantiomer 1-500 μM,inhibition of Na^+ currents in a concentration-dependent and voltage-dependent manner
same,ED50,"[4]; rats, 0.5 hours, read-out: ED50 (95% limits)",2.7 mg/kg
same,ED50,"[4]; rats, 1 hour, read-out: ED50 (95% limits)",3.3 mg/kg
same,ED50,"[4]; rats, 2 hours, read-out: ED50 (95% limits)",2.7 mg/kg
same,ED50,"[4]; rats, 4 hours, read-out: ED50 (95% limits)",2.3 mg/kg
same,ED50,"[4]; rats, 8 hours, read-out: ED50 (95% limits)",4.8 mg/kg
same,ED50,"[4]; rats, 24 hours, read-out: ED50 (95% limits)",7.1 mg/kg
Nc1nc(N)c(-c2cccc(Cl)c2Cl)c(CF)n1 [(L)-Lactate],Hotstage/DSC results indicates (racemisation on heating),[1],Racemisation
same,temperature of racemisation indicated by hotstage/DSC,[1],143 °C
same,pH of the solution,[2],3.43
same,solubility of four salts,[2],less than 1 mg/ml
Nc1nc(N)c(-c2cccc(Cl)c2Cl)c(CF)n1 [Sulphate],stability profile suggested by the tests,[1],could provide good stability
same,Hotstage/DSC results indicates (racemisation on heating),[1],Racemisation
same,temperature of racemisation indicated by hotstage/DSC,[1],194 °C
same,pH of the solution,[2],1.92
same,solubility of the equivalent base over or around 25 mg/ml,[2],around 25 mg/ml
Nc1nc(N)c(-c2cccc(Cl)c2Cl)c(CF)n1 [Phosphate],stability profile suggested by the tests,[1],could provide good stability
same,pH of the solution,[2],2.34
same,solubility of the equivalent base over or around 25 mg/ml,[2],around 25 mg/ml
Nc1nc(N)c(-c2cccc(Cl)c2Cl)c(CF)n1 [Fumarate],Hotstage/DSC results indicates (racemisation on heating),[1],Racemisation
same,temperature of racemisation indicated by hotstage/DSC,[1],127 °C
same,pH of the solution,[2],3.04
"Nc1nc(N)c(-c2cccc(Cl)c2Cl)c(CF)n1 [HCl, R(-)-2,4-diamino-5-(2,3-dichlorophenyl)-6-fluoromethyl Pyrimidine Monohydrochloride]",Hotstage/DSC results indicates (racemisation on heating),[1]; Monohydrochloride,Racemisation
same,temperature of racemisation indicated by hotstage/DSC,[1]; Monohydrochloride,243 °C
same,pH of the solution,[2]; Monohydrochloride,3.61
same,solubility,[2]; solubility of the equivalent base over or around 25 mg/ml,~25 mg/mL
Nc1nc(N)c(-c2cccc(Cl)c2Cl)c(CF)n1 [Succinate],Hotstage/DSC results indicates (racemisation on heating),[1],Racemisation
same,temperature of racemisation indicated by hotstage/DSC,[1],81 °C
same,pH of the solution,[2],4.09
Nc1nc(N)c(-c2cccc(Cl)c2Cl)c(CF)n1 [Toluenesulphonate],stability profile suggested by the tests,[1],could provide good stability
Nc1nc(N)c(-c2cccc(Cl)c2Cl)c(CF)n1 [Benzoate],Hotstage/DSC results indicates (racemisation on heating),[1],unstable
same,pH of the solution,[2],4.17
same,solubility of four salts,[2],less than 1 mg/ml
Nc1nc(N)c(-c2cccc(Cl)c2Cl)c(CF)n1 [Malonate],stability profile suggested by the tests,[1],could provide good stability
same,pH of the solution,[2],3.2
